Experiments:
A549 = assay: Growth inhibition of human A549 cells; assay type: functional, cell-based
[1] = Growth inhibition of human A549-T24 cells over-expressing class-3 beta-tubulin; assay type: functional
[2] = Selectivity ratio of IC50 for human A549-T24 cells over-expressing class-3 beta-tubulin to IC50 for human A549 cells; assay type: functional
[3] = Selectivity ratio of IC50 for human HCT116/VM46 cells over-expressing P-gp to IC50 for human HCT116 cells; assay type: functional
HCT-116/VM46 = assay: Growth inhibition of human HCT116/VM46 cells over-expressing P-gp after 72 hrs by phosphatase assay; assay type: functional, cell-based; conditions: HCT-116/VM46, 72 h
HCT-116 = assay: Growth inhibition of human HCT116 cells after 72 hrs by phosphatase assay; assay type: functional, cell-based; conditions: HCT-116, 72 h
L1210 = assay: Growth inhibition of mouse L1210 cells after 72 hrs by phosphatase assay; assay type: functional, cell-based; conditions: L1210, 72 h

| IC50 (A549) | IC50 (HCT-116/VM46) | IC50 (HCT-116) | IC50 (L1210) | Compound | IC50 [1] | Ratio IC50 [2] | Ratio IC50 [3] |
| --- | --- | --- | --- | --- | --- | --- | --- |
| 1.4 nM | 1.8 nM | 0.5 nM | 0.4 nM | CC[C@]1(NC(=O)c2ccc3c(c2)CCCO3)C[C@H]2CN(CCc3c([nH]c4ccc(F)cc34)[C@@](C(=O)OC)(c3cc4c(cc3OC)N(C)[C@H]3[C@@](O)(C(=O)OC)[C@H](OC(C)=O)[C@]5(CC)C=CCN6CC[C@]43[C@@H]65)C2)C1 | 0.8 nM | <1 | 3.8 |
| 0.53 nM | 0.87 nM | 0.07 nM | 0.06 nM | CC[C@]1(NC(=O)N2Cc3ccc(NC(=O)c4cccnn4)cc3C2)C[C@H]2CN(CCc3c([nH]c4ccc(F)cc34)[C@@](C(=O)OC)(c3cc4c(cc3OC)N(C)[C@H]3[C@@](O)(C(=O)OC)[C@H](OC(C)=O)[C@]5(CC)C=CCN6CC[C@]43[C@@H]65)C2)C1 | 0.26 nM | <1 | 12 |
| 0.7 nM | 7.5 nM | 0.6 nM | 0.5 nM | CC[C@]1(NC(=O)N2Cc3ccccc3C2)C[C@H]2CN(CCc3c([nH]c4ccc(F)cc34)[C@@](C(=O)OC)(c3cc4c(cc3OC)N(C)[C@H]3[C@@](O)(C(=O)OC)[C@H](OC(C)=O)[C@]5(CC)C=CCN6CC[C@]43[C@@H]65)C2)C1 | 0.7 nM | 1 | 12 |
| 0.19 nM | 0.83 nM | 0.07 nM | 0.06 nM | CC[C@]1(NC(=O)N2Cc3ccc(NC(=O)c4cnccn4)cc3C2)C[C@H]2CN(CCc3c([nH]c4ccc(F)cc34)[C@@](C(=O)OC)(c3cc4c(cc3OC)N(C)[C@H]3[C@@](O)(C(=O)OC)[C@H](OC(C)=O)[C@]5(CC)C=CCN6CC[C@]43[C@@H]65)C2)C1 | 0.09 nM | <1 | 12 |
| 0.17 nM | 0.88 nM | 0.07 nM | 0.06 nM | CC[C@]1(NC(=O)N2Cc3ccc(NC(=O)c4ccncn4)cc3C2)C[C@H]2CN(CCc3c([nH]c4ccc(F)cc34)[C@@](C(=O)OC)(c3cc4c(cc3OC)N(C)[C@H]3[C@@](O)(C(=O)OC)[C@H](OC(C)=O)[C@]5(CC)C=CCN6CC[C@]43[C@@H]65)C2)C1 | 0.13 nM | <1 | 13 |
| 5 nM | 7.6 nM | 4.5 nM | 3 nM | CC[C@]1(NC(=O)c2ccc(C)c(C)c2)C[C@H]2CN(CCc3c([nH]c4ccc(F)cc34)[C@@](C(=O)OC)(c3cc4c(cc3OC)N(C)[C@H]3[C@@](O)(C(=O)OC)[C@H](OC(C)=O)[C@]5(CC)C=CCN6CC[C@]43[C@@H]65)C2)C1 | 2.5 nM | <1 | 1.7 |
| 7.1 nM | > 200 nM |  |  | CC(=O)O[C@H]1C(=O)[C@@]2(C)[C@H]([C@H](OC(=O)c3ccccc3)[C@]3(O)C[C@H](OC(=O)[C@H](O)[C@@H](NC(=O)c4ccccc4)c4ccccc4)C(C)=C1C3(C)C)[C@]1(OC(C)=O)CO[C@@H]1C[C@@H]2O [PACLITAXEL] | 70 nM | 10 | >50 |
| 7.7 nM |  |  |  | CC[C@]1(O)C[C@@H]2CN(CCc3c([nH]c4ccccc34)[C@@](C(=O)OC)(c3cc4c(cc3OC)N(C)[C@H]3[C@@](O)(C(=O)OC)[C@H](OC(C)=O)[C@]5(CC)C=CCN6CC[C@]43[C@@H]65)C2)C1 [VINBLASTINE] | 6.7 nM | <1 |  |

| Compound | IC50 (A549) | IC50 (HCT-116/VM46) | IC50 (HCT-116) | IC50 (L1210) | IC50 [1] | Ratio IC50 [2] | Ratio IC50 [3] |
| --- | --- | --- | --- | --- | --- | --- | --- |
| CC[C@]1(O)C[C@H]2CN(CCc3c([nH]c4ccc(F)cc34)[C@@](C(=O)OC)(c3cc4c(cc3OC)N(C)[C@H]3[C@@](O)(C(=O)OC)[C@H](OC(C)=O)[C@]5(CC)C=CCN6CC[C@]43[C@@H]65)C2)C1 | 2.9 nM |  |  |  | 0.8 nM | <1 | 100 |
| CC[C@]1(NC(=O)c2ccc3c(c2)CCCC3)C[C@H]2CN(CCc3c([nH]c4ccc(F)cc34)[C@@](C(=O)OC)(c3cc4c(cc3OC)N(C)[C@H]3[C@@](O)(C(=O)OC)[C@H](OC(C)=O)[C@]5(CC)C=CCN6CC[C@]43[C@@H]65)C2)C1 | 7.6 nM | 8.7 nM | 4.9 nM | 3 nM | 6.5 nM | <1 | 1.8 |
